The record followed here is patent publication US9035074B2, “Pyrrolo[2,3-D]pyrimidine derivatives” (Pfizer Inc., priority 2013, dated 2015).

Each structure is given as a SMILES string. Some results are limits rather than exact numbers.

The target of this assay is JAK3 (Homo sapiens (Human), UniProt P52333). Nature of the assay: JAK Caliper Enzyme Assay at 1 mM ATP (JAK3). The class given is biochemical.
Sequence of JAK3 (P52333 whole entry, species assumed): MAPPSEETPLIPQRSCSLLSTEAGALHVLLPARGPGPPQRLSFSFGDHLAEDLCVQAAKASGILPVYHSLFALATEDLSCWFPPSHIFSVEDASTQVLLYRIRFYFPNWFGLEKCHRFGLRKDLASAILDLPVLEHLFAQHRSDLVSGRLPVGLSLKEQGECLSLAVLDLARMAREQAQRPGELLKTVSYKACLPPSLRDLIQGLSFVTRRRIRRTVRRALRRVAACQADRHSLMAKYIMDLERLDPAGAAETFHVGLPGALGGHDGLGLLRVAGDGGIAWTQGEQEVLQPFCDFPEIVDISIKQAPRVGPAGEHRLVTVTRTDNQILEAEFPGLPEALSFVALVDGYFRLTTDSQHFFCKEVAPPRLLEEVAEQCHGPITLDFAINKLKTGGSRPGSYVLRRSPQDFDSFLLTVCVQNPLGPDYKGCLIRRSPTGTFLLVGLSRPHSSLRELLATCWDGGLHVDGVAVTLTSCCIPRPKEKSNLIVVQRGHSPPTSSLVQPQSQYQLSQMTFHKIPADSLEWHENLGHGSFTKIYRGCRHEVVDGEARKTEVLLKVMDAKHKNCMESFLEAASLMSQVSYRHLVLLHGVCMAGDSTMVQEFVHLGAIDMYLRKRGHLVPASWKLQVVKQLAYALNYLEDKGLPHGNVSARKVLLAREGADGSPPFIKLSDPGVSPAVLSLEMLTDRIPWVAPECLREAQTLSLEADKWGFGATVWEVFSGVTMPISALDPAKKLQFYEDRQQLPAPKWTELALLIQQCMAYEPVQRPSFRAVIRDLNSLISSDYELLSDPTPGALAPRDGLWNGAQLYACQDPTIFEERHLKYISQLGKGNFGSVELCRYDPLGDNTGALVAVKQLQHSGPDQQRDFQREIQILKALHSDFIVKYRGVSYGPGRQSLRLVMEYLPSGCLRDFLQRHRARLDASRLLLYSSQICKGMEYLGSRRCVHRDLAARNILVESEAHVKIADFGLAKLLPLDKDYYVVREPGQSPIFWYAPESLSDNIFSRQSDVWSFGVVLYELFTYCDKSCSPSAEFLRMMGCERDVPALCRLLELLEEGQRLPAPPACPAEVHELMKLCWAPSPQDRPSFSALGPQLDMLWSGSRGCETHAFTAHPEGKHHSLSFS

Take `CN(c1ncnc2[nH]ccc12)[C@H]1C[C@@H](NS(=O)(=O)N2CC[C@@H](C#N)C2)C1` (mixture of isomers) [Example 17A, (R)- and (S)-3-Cyano-N-{cis-3-[methyl(7H-pyrrolo[2,3-d]pyrimidin-4-yl)amino]cyclobutyl}pyrrolidine-1-sulfonamide]: the concentration for half-maximal inhibition (IC50) (usually the concentration at which inhibition is half-maximal) was > 10 µM.
For `CN(c1ncnc2[nH]ccc12)[C@H]1C[C@@H](NS(=O)(=O)[C@H]2C[C@@H](CC#N)C2)C1` [Example 4A, cis-3-(cyanomethyl)-N-{cis-3-[methyl(7H-pyrrolo[2,3-d]pyrimidin-4-yl)amino]-cyclobutyl}cyclobutane-sulfonamide] the value was > 10 µM.
For `CN(c1ncnc2[nH]ccc12)[C@H]1C[C@@H](NS(=O)(=O)[C@H]2C[C@H](CC#N)C2)C1` [Example 4B, trans-3-(cyanomethyl)-N-{cis-3-[methyl(7H-pyrrolo[2,3-d]pyrimidin-4-yl)amino]cyclobutyl}-cyclobutanesulfonamide] the value was > 10 µM.
Take `CN(c1ncnc2[nH]ccc12)[C@H]1C[C@@H](NS(=O)(=O)[C@H]2C[C@@](C)(CC#N)C2)C1` [Example 7A, cis-3-(cyanomethyl)-3-methyl-N-{cis-3-[methyl(7H-pyrrolo[2,3-d]pyrimidin-4-yl)amino]cyclobutyl}-cyclo-butanesulfonamide]: the IC50 is > 10 µM.
To `CN(c1ncnc2[nH]ccc12)[C@H]1C[C@@H](NS(=O)(=O)[C@H]2C[C@](C)(CC#N)C2)C1` [Example 7B, trans-3-(cyanomethyl)-3-methyl-N-{cis-3-[methyl(7H-pyrrolo[2,3-d]pyrimidin-4-yl)amino]cyclobutyl}cyclo-butanesulfonamide] belongs > 10 µM.
To `CN(c1ncnc2[nH]ccc12)[C@H]1C[C@@H](NS(=O)(=O)C2CN(C3CC3)C2)C1` [Example 15, 1-Cyclopropyl-N-{cis-3-[methyl(7H-pyrrolo[2,3-d]pyrimidin-4-yl)amino]cyclobutyl}azetidine-3-sulfonamide] belongs > 10 µM; to `CN(c1ncnc2[nH]ccc12)[C@H]1C[C@@H](NS(=O)(=O)N2C[C@H]3C[C@@H](C2)O3)C1` [Example 19, N-{cis-3-[Methyl(7H-pyrrolo[2,3-d]pyrimidin-4-yl)amino]cyclobutyl}-6-oxa-3-azabicyclo[3.1.1]heptane-3-sulfonamide], > 10 µM.
To `CN(c1ncnc2[nH]ccc12)[C@H]1C[C@@H](CS(=O)(=O)N2CCC(F)(F)CC2)C1` [Example 25, N-(cis-3-{[(4,4-Difluoropiperidin-1-yl)sulfonyl]methyl}cyclobutyl)-N-methyl-7H-pyrrolo[2,3-d]pyrimidin-4-amine] belongs > 10 µM; to `CN(c1ncnc2[nH]ccc12)[C@H]1C[C@@H](CS(=O)(=O)CCC2CC2)C1` [Example 32, N-(cis-3-{[(2-Cyclopropylethyl)sulfonyl]methyl}cyclobutyl)-N-methyl-7H-pyrrolo[2,3-d]pyrimidin-4-amine], > 10 µM; to `Cc1ncc(S(=O)(=O)N[C@H]2C[C@@H](N(C)c3ncnc4[nH]ccc34)C2)s1` [Example 38, 2-Methyl-N-{cis-3-[methyl(7H-pyrrolo[2,3-d]pyrimidin-4-yl)amino]cyclobutyl}-1,3-thiazole-5-sulfonamide], > 10 µM.
